According to ChEMBL document CHEMBL1201862, “PubChem BioAssay data set” (2004):
Activity calls are given as the source filed them.

Experiments:
[1] = THP-1 cell cytotoxicity, dose response, cytotoxicity control for Vif-APOBEC3G degradation inhibitor project, THP-1 cells (AID 1117359); format: functional; settings: Human immunodeficiency virus 1, THP-1
[2] = biological target: Glycogen synthase kinase-3 beta (Homo sapiens, UniProt P49841); test: GSK3beta kinase inhibitors, dose response, biochemical, microfluidics, dry powder samples, set 2 (AID 623989); format: functional
[3] = biological target: T1, Cyclin-dependent kinase 5/CDK5 activator 1 (Homo sapiens, UniProt Q00535); test: CDK5/p35 kinase inhibitors, dose response, biochemical, cherry-picked samples, set 2 (AID 504545)
[4] = biological target: T1, Cyclin-dependent kinase 5/CDK5 activator 1; test: CDK5-p25 kinase inhibition, dose response, selectivity assay for GSK3beta inhibitor project, biochemical, microfluidic mobility shift, dry powder, set 2 (AID 623979); format: functional
[5] = HepG2 cell cytotoxicity, dose response, cytotoxicity control, ATP luminescence, cherry-pick, activator set 2 (AID 1053143); format: functional, cell-based
[6] = biological target: Dual specificity tyrosine-phosphorylation-regulated kinase 1A (Rattus norvegicus, UniProt Q63470); format: biochemical, Homo sapiens
[7] = biological target: Glycogen synthase kinase-3 alpha (Homo sapiens, UniProt P49840); test: human GSK3 alpha kinase inhibition, dose response, selectivity assay for GSK3beta inhibitor project, biochemical, microfluidics, dry powder samples, set 2 (AID 623978); format: functional
Sequence of Glycogen synthase kinase-3 alpha (P49840 whole entry): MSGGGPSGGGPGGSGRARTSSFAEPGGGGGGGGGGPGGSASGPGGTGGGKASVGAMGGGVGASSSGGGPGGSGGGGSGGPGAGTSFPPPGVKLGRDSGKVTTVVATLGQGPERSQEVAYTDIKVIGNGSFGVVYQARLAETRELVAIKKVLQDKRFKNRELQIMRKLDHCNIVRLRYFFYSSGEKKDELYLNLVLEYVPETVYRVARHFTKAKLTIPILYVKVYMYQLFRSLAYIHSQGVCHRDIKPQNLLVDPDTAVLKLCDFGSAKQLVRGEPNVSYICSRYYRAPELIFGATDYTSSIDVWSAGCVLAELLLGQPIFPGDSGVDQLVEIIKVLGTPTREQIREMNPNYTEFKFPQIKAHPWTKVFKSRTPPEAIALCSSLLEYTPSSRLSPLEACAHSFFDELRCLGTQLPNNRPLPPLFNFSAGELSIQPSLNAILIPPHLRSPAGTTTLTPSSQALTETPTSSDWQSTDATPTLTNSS

T1 sequence (Q00535 whole entry): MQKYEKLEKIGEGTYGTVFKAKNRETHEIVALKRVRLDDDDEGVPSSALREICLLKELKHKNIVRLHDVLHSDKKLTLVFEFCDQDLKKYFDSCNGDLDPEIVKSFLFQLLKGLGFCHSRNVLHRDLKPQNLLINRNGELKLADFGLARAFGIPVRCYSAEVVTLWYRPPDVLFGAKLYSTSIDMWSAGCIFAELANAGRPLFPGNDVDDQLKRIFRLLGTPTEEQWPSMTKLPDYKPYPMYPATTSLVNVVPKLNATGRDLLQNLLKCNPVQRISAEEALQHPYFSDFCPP
T1 sequence (Q15078 whole entry, further chain): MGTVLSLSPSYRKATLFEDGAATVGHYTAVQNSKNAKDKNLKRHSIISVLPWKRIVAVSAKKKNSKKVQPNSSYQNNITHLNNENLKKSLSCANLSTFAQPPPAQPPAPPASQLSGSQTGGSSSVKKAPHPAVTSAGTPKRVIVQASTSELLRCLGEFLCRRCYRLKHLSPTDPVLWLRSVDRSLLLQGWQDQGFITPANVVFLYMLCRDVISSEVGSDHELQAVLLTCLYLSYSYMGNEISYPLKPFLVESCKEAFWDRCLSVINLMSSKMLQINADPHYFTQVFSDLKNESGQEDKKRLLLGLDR
Sequence of Glycogen synthase kinase-3 beta (P49841 whole entry): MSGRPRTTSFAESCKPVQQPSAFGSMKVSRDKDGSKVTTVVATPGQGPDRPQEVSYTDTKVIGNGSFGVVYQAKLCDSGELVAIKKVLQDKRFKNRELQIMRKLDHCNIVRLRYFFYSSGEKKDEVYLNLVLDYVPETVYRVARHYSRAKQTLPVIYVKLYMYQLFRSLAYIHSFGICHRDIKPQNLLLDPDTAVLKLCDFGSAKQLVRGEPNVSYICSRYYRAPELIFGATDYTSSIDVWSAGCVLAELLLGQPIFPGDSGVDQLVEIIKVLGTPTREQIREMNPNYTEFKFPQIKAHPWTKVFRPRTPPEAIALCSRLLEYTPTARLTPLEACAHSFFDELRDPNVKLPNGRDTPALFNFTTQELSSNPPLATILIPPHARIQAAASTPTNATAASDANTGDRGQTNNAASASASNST

Nc1nc(Nc2ccccc2)sc1C(=O)c1ccccc1
active: CC50 [1] 14000 nM | AC50 [2] 36 nM | AC50 [3] 2270 nM | AC50 [4] 190 nM | AC50 [5] 18900 nM | AC50 [6] 811 nM | AC50 [7] 168 nM
